Data reported in patent US6369225B1, “Compounds having activity as inhibitors of cytochrome P450RAI” (Allergan Sales, Inc., priority 2000, dated 2002).

Experiments:
P450RAI-1 = biological target: T1, P450RAI-1 (Homo sapiens, UniProt O43174); experiment: P450RAI-1 cell-based inhibitor assay; settings: P450RAI-1 stably transfected HeLa cells, [3H]-RA metabolism, 3 hours at 37° C.; read-out: P450RAI INHIBITION DATA INTACT HELA IC50
T1 construct: expressed in transfected cells; host or cells: HeLa cells, stably transfected, hygromycin selection
T1 sequence (O43174 1-497): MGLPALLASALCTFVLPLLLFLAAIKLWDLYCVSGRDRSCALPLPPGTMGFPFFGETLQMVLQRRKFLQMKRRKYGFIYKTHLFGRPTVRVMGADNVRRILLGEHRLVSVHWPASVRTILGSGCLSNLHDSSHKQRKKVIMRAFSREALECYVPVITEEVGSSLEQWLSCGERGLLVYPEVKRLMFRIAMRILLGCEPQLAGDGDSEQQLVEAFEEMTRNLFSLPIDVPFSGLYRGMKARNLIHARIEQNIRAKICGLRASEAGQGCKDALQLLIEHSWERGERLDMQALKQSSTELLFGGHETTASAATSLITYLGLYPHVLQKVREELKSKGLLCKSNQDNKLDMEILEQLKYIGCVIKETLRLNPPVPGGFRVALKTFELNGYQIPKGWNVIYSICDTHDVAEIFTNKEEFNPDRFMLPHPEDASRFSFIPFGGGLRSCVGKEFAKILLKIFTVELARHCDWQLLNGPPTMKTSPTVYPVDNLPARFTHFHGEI
Outline: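 HeLa cells stably expressing the enzyme (5×10^5/well) incubated 3 h at 37 °C with 0.05 μCi [3H]-all-trans-RA and compound at 10, 1 or 0.1 μM in triplicate. Water-soluble radioactive metabolites counted by scintillation; IC50 derived manually from log-transformed data.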

RARα [1] = biological target: T2, RARα (Homo sapiens, UniProt P10276); experiment: chimeric receptor transactivation assay, RARα; type: cell-based; settings: EC50 line of EC50/(EFFICACY)/Kd, read-out: RAR EC50 α
T2 sequence (P10276 183-462 limits assumed): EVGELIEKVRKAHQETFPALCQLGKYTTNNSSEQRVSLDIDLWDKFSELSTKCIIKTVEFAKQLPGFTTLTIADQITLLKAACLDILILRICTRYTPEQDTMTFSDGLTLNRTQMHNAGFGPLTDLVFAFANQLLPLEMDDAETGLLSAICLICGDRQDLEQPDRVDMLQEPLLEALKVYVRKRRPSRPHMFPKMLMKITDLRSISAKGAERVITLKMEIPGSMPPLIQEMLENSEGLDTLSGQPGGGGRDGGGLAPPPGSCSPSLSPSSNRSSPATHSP
Text: (§1) Assays described below measure the ability of a compound to bind to, and/or activate various retinoid receptor subtypes. When in these assays a compound binds to a given receptor subtype and activates the transcription of a reporter gene through that subtype, then the compound is considered an agonist of that receptor subtype. […] In the below described assays the ability of the compounds to bind to RARα, RARβ, RARγ, RXRα, RXRβ and RXRγ receptors, and the ability or inability of the compounds to activate transcription of a reporter gene through these receptor subtypes can be tested.
(§2) As far as specific assays are concerned, a chimeric receptor transactivation assay which tests for agonist-like activity in the RARα, RARβ, AND RARγ, receptor subtypes, and which is based on work published by Feigner P. L. and Holm M. (1989) Focus, 112 is described in detail in U.S. Pat. No. 5,455,265. The specification of U.S. Pat. No. 5,455,265 is hereby expressly incorporated by reference. The numeric results obtained with several preferred compounds of this invention in this assay are shown below in Table 1.

RARβ [2] = biological target: T3, RARβ (Homo sapiens, UniProt P10826); experiment: chimeric receptor transactivation assay, RARβ; type: cell-based; settings: EC50 line of EC50/(EFFICACY)/Kd, read-out: RAR EC50 β
T3 sequence (P10826 183-417 limits assumed): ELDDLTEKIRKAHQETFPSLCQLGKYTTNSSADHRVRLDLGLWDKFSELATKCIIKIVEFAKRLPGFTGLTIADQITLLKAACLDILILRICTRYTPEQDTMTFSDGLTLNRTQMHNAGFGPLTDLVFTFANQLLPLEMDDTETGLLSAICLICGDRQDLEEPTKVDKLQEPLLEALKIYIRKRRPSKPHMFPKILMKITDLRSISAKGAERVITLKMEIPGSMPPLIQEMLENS
Text: as §1, §2

RARγ [3] = biological target: T4, RARγ (Homo sapiens, UniProt P13631); experiment: chimeric receptor transactivation assay, RARγ; type: cell-based; settings: EC50 line of EC50/(EFFICACY)/Kd, read-out: RAR EC50 γ
T4 sequence (P13631 185-419 limits assumed): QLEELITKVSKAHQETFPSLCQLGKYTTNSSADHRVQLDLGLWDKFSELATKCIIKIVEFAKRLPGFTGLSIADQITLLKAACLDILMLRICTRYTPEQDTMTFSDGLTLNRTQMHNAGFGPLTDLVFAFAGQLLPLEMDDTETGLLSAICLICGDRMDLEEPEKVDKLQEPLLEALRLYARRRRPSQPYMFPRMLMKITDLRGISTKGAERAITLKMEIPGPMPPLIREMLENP
Text: as §1, §2

RARγ [4] = biological target: T5, RARγ (Homo sapiens, UniProt P13631); experiment: ligand binding assay, RARγ; settings: Kd line of EC50/(EFFICACY)/Kd, read-out: RAR Kd γ
T5 sequence (P13631 1-454): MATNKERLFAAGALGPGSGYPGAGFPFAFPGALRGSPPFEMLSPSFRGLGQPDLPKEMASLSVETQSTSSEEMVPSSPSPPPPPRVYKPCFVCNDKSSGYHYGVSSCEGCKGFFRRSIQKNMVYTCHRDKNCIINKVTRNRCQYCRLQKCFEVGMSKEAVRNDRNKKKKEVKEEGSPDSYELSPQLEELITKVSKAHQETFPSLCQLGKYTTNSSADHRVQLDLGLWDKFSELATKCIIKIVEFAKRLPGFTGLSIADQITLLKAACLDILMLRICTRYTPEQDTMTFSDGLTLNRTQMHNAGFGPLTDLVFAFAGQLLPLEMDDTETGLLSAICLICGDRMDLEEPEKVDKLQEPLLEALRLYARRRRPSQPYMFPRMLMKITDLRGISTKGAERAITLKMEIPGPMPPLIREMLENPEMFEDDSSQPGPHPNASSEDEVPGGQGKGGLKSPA
Text: as §1
(§3) A holoreceptor transactivation assay and a ligand binding assay which measure the antagonist/agonist like activity of the compounds of the invention, or their ability to bind to the several retinoid receptor subtypes, respectively, are described in published PCT Application No. WO WO93/11755 (particularly on pages 30-33 and 37-41) published on Jun. 24, 1993, the specification of which is also incorporated herein by reference. A detailed experimental procedure for holoreceptor transactivations has been described by Heyman et al. Cell 68, 397-406, (1992); Allegretto et al. J. Biol. Chem. 268, 26625-26633, and Mangelsdorf et al. The Retinoids: Biology, Chemistry and Medicine, pp 319-349, Raven Press Ltd., New York, which are expressly incorporated herein by reference. The results obtained in this assay are expressed in EC50 numbers, as they are also in the chimeric receptor transactivation assay. The results of ligand binding assay are expressed in Kd numbers. (See Cheng et al. Biochemical Pharmacology Vol. 22 pp 3099-3108, expressly incorporated herein by reference.)
(§4) The results if the ligand binding assay for several preferred compounds of the invention are included in Table 1.

skin of hairless mice = experiment: topical skin irritation test in hairless mice; type: in vivo, mouse; settings: topical in acetone, once daily days 1 through 5, mean ±SD, range 0-21
Text: Mice were housed individually throughout the dosing period.
Doses are disclosed as nmol/25 g.
The grading scale used is as follows:
Values can range from 0-9.
Values can range from 0-8.

RARβ [5] = biological target: T6, RARβ (Homo sapiens, UniProt P10826); experiment: ligand binding assay, RARβ; settings: Kd line of EC50/(EFFICACY)/Kd, read-out: RAR Kd β
T6 sequence (P10826 1-455): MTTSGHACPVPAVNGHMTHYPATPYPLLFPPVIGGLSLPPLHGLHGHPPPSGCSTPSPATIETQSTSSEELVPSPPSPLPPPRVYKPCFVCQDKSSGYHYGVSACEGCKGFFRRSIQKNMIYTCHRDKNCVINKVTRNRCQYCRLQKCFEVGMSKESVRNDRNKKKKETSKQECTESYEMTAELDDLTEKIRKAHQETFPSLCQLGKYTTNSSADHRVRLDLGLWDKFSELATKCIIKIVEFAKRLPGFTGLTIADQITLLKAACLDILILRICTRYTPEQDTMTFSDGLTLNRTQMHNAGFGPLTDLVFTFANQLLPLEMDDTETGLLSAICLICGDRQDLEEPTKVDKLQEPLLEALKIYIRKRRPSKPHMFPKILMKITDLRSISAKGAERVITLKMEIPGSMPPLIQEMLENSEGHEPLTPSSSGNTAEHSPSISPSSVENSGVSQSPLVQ
Text: as §1
as §3, with “A detailed experimental procedure for holoreceptor transactivations has been described by Heyman et al. Cell 68, 397-406, (1992); Allegretto et al. J. Biol. Chem. 268, 26625-26633, and Mangelsdorf et al. The Retinoids: Biology, Chemistry and Medicine, pp 319-349, Raven Press Ltd., New York, which are expressly incorporated herein by reference.” left out

RARα [6] = biological target: T7, RARα (Homo sapiens, UniProt P10276); experiment: ligand binding assay, RARα; settings: Kd line of EC50/(EFFICACY)/Kd, read-out: RAR Kd α
T7 sequence (P10276 1-462): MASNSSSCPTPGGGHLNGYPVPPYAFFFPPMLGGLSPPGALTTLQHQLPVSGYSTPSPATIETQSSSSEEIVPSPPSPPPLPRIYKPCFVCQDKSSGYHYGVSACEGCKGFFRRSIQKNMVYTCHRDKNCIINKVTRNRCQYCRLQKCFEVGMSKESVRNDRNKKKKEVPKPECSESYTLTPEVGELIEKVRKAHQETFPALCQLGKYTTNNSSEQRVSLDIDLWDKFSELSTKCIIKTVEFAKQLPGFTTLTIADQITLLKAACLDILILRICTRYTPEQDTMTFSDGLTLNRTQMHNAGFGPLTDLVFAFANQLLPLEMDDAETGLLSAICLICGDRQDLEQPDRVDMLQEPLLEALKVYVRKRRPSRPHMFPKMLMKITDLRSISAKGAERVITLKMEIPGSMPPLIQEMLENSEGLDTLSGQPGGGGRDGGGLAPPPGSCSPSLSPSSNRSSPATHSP
Text: as §1, §3, §4

| Structure (SMILES) | IC50 (P450RAI-1) [nM] | EC50 (RARα [1]) [nM] | EC50 (RARβ [2]) [nM] | EC50 (RARγ [3]) [nM] | Kd (RARγ [4]) [nM] | Cutaneous Toxicity Score (Blackjack Score) (skin of hairless mice; 100 nmole (nmol/25 g)) | Cutaneous Toxicity Score (Blackjack Score) (skin of hairless mice; 1000 nmole (nmol/25 g)) | Kd (RARβ [5]) [nM] | Kd (RARα [6]) [nM] |
| --- | --- | --- | --- | --- | --- | --- | --- | --- | --- |
| CC1(C)CCC(=O)c2ccc(C#Cc3ccc(C(=O)O)c(F)c3)cc21 [Compound 10, 2-Fluoro-4-(8,8-dimethyl-5-oxo-5,6,7,8-tetrahydro-naphthalen-2yl-ethynyl)benzoic Acid] | 700 | 57 | 0.3 | 6 | – | – | – | – | – |
| CC1(C)CC(C)(C)c2cc(C#Cc3ccc(CC(=O)O)c(F)c3)cc(C3CC3)c2O1 [Compound 38, [4-(8-Cyclopropyl-2,2,4,4-tetramethyl-chroman-6-yl-ethynyl)-2-fluorophenyl]acetic Acid] | 25 | – | – | – | 2880 | 1 ± 1 | 10 ± 1 | 5320 | – |
| CN(C1CC1)C1CCC(C)(C)c2cc(C#Cc3ccc(C(=O)O)c(F)c3)ccc21 (stereo not drawn) [Compound 13, 4-[5-(Cyclopropyl-methyl-amino)-8,8-dimethyl-5,6,7,8-tetrahydro-naphthalene-2-yl-ethynyl]-2-fluoro Benzoic Acid] | 3100 | – | 3.2 | 116 | – | – | – | – | – |
| CC1(C)CC(C)(C)c2cc(C#Cc3ccc(CC(=O)O)cc3)cc(C3CC3)c2O1 [Compound 36, [4-(8-Cyclopropyl-2,2,4,4-tetramethyl-chroman-6-yl-ethynyl)phenyl]acetic Acid] | 33 | – | – | – | 492 | 1 ± 1 | 11 ± 0 | 4900 | 13000 |
